Measured values from PMC3688963, “Biochemical Characterization of Hypothetical Proteins from Helicobacter pylori” (PLoS ONE, 2013).

Molecular target: T1, HP1079 (Helicobacter pylori, UniProt O25711)
T1 construct: gene HP_1079; native protein captured with GTP-coated nano-particles; His6 recombinant also made
T1 sequence (O25711 1-370): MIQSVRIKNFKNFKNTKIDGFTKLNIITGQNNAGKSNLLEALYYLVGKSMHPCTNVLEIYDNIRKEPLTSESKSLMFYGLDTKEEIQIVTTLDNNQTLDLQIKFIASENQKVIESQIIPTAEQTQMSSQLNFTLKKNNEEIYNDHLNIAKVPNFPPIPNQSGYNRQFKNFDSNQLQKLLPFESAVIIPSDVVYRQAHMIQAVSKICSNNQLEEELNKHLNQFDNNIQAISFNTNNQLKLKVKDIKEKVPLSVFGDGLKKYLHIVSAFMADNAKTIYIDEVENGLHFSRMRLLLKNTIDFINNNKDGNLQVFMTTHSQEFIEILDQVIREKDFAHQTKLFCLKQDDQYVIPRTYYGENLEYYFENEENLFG
Assay: phosphate release, malachite green
Format: biochemical
Conditions: 10 mM MgCl2, 10% glycerol, 100 mM sodium acetate pH 6.0, 30°C; read-out: Km (mM)^bc
Excerpt: phosphate release, malachite green on HP1079

## Nc1ncnc2c1ncn2[C@@H]1O[C@H](COP(=O)(O)OP(=O)(O)OP(=O)(O)O)[C@@H](O)[C@H]1O [ATP]
  Km: 1.02 ± 0.05 mM
